Measured values published in ChEMBL document CHEMBL3868609, “[2.2.1]-Bicyclic sultams as potent androgen receptor antagonists” (Bioorg Med Chem Lett, 2016).
Active and inactive are the calls of the source. The rule behind the calls is not given here.

Assays:
[1] = biological target: T1, Androgen receptor (Homo sapiens, UniProt P10275); assay: Antagonist activity at androgen receptor in human MDA-MB-453 cells assessed as inhibition of testosterone-induced transactivation; type: cell-based
T1 sequence (P10275 whole entry): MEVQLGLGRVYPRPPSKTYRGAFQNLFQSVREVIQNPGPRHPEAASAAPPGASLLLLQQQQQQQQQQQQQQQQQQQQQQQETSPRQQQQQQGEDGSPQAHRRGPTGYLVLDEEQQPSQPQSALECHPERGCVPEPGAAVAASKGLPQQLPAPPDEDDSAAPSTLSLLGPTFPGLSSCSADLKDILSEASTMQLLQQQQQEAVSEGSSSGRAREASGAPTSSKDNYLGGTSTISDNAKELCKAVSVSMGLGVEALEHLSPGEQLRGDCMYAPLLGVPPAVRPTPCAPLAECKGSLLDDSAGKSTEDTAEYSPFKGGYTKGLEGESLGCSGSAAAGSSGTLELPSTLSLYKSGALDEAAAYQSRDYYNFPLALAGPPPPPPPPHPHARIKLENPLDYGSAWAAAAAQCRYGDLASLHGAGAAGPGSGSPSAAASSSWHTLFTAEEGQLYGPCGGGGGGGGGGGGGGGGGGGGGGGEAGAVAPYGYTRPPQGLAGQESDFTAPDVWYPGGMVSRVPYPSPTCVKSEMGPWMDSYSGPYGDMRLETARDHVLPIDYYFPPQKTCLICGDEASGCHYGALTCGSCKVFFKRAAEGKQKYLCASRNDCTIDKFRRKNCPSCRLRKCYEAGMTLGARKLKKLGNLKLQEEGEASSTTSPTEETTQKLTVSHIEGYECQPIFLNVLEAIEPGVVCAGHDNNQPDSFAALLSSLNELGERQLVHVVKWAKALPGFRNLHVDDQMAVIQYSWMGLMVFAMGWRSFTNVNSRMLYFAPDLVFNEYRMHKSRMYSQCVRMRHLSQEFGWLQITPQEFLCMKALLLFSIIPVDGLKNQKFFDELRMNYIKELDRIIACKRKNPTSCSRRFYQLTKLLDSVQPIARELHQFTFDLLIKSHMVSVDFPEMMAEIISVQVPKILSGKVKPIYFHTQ

[2] = biological target: T1, Androgen receptor; assay: Displacement of [3H]DHT from androgen receptor in human MDA-MB-453 cells; type: cell-based
[3] = test system: Mus musculus; assay: Toxicity in BALB/c athymic mouse xenografted with bicalutamide-resistant human CWR22-BMSLD1 cells at 150 mg/kg, po qd for 20 days; type: organism-based; details: in vivo, 480 h
[4] = test system: Rattus norvegicus; assay: In vivo antagonist activity at androgen receptor in immature rat prostate weight model assessed as testosterone propionate-induced weight of seminal vesicles over full body weight at 10 mg/kg, po qd administered for 4 days relative to testosterone propionate treated control; type: functional; design: scale not given: the % may be the effect or the level left
[5] = Plasma concentration in immature rat prostate weight model at 10 mg/kg, po qd administered for 4 days measured 2 hrs post last dose on day 4; type: ADME, organism-based
[6] = Antitumor activity against bicalutamide-resistant human CWR22-BMSLD1 cells xenografted in BALB/c athymic mouse assessed as tumor growth inhibition at 150 mg/kg, po qd for 20 days measured on last day of dosing relative to control; type: functional; details: 480 h, read-out: TGI
[7] = Plasma concentration in immature rat prostate weight model at 25 mg/kg, po qd administered for 4 days measured 2 hrs post last dose on day 4; type: ADME, organism-based
[8] = test system: Rattus norvegicus; assay: In vivo antagonist activity at androgen receptor in immature rat prostate weight model assessed as testosterone propionate-induced weight of seminal vesicles over full body weight at 25 mg/kg, po qd administered for 4 days relative to testosterone propionate treated control; type: functional; design: scale not given: the % may be the effect or the level left
[9] = test system: CWR22-BMSLD1; assay: Antitumor activity against bicalutamide-resistant human CWR22-BMSLD1 cells xenografted in BALB/c athymic mouse assessed as tumor stasis at 150 mg/kg, po qd for 20 days; type: functional, organism-based
[10] = Drug metabolism in mouse liver microsomes assessed as oxidative metabolite formation; type: ADME
[11] = AUC (0 to 24 hrs) in BALB/c athymic mouse xenografted with bicalutamide-resistant human CWR22-BMSLD1 cells at 78 mg/kg, po; type: ADME, organism-based; design: time < 24 hr, dose 78 mg/kg, route oral; details: in vivo
[12] = Plasma concentration in immature rat prostate weight model at 15 mg/kg, po qd administered for 4 days measured 2 hrs post last dose on day 4; type: ADME, organism-based
[13] = test system: Rattus norvegicus; assay: In vivo antagonist activity at androgen receptor in immature rat prostate weight model assessed as testosterone propionate-induced weight of seminal vesicles over full body weight at 15 mg/kg, po qd administered for 4 days relative to testosterone propionate treated control; type: functional; design: scale not given: the % may be the effect or the level left
[14] = test system: Rattus norvegicus; assay: In vivo antagonist activity at androgen receptor in immature rat prostate weight model assessed as testosterone propionate-induced weight of seminal vesicles over full body weight at 30 mg/kg, po qd administered for 4 days relative to testosterone propionate treated control; type: functional; design: scale not given: the % may be the effect or the level left
[15] = Plasma concentration in immature rat prostate weight model at 30 mg/kg, po qd administered for 4 days measured 2 hrs post last dose on day 4; type: ADME, organism-based

| SMILES | IC50 [1] [µM] | Ki [2] [µM] | AUC(0-t) at 24 h [11] [µM·h] | also measured |
| --- | --- | --- | --- | --- |
| N#Cc1ccc(N2C[C@H]3[C@H]4CC[C@H](C4)[C@H]3S2(=O)=O)cc1C(F)(F)F | 0.13 | 0.003 |  |  |
| C[C@@]12[C@@H]3CC[C@@H](C3=O)[C@@H]1CN(c1ccc(C#N)c(C(F)(F)F)c1)S2(=O)=O | 0.067 | 0.008 |  |  |
| C[C@@]12[C@@H]3CC[C@@H](C3O)[C@@H]1CN(c1ccc(C#N)c(C(F)(F)F)c1)S2(=O)=O (stereo in doubt; 17) | 0.327 | 0.048 |  |  |
| CC(O)(CS(=O)(=O)c1ccc(F)cc1)C(=O)Nc1ccc(C#N)c(C(F)(F)F)c1 (centres undefined) [BICALUTAMIDE] |  |  |  | Activity [3]: Non-Toxic; Activity [4]: 41%; concentration at 2 h [5]: 9500 nM; inhibition in vivo at 150 mg/kg [6]: 39% |
| C[C@@]12[C@@H]3C=C[C@@H](C3)[C@@H]1CN(c1ccc(C#N)c(C(F)(F)F)c1)S2(=O)=O | 0.03 | 0.002 |  | Activity [3]: Non-Toxic; concentration at 2 h [7]: 50 nM; Activity [8]: 35%; Activity [9]: Active; inhibition in vivo at 150 mg/kg [6]: 87%; Drug metabolism [10]: Metabolite_Detected |
| C[C@@]12[C@@H](CN(c3ccc(C#N)c(C(F)(F)F)c3)S1(=O)=O)[C@H]1C[C@H](F)[C@@H]2C1 | 0.091 | 0.008 | > 2 | concentration at 2 h [12]: 2800 nM; Activity [13]: 65% |
| C[C@@]12[C@@H]3CC[C@@H](C3O)[C@@H]1CN(c1ccc(C#N)c(C(F)(F)F)c1)S2(=O)=O (stereo in doubt; 15) | 0.444 | 0.106 |  |  |
| C[C@@]12[C@H]3C[C@H]([C@H](O)C3)[C@@H]1CN(c1ccc(C#N)c(C(F)(F)F)c1)S2(=O)=O | 0.43 | 0.028 | > 2 | Activity [14]: 58% |
| C[C@@]12[C@@H]3CC[C@@H](C3)[C@@H]1CN(c1ccc(C#N)c(C(F)(F)F)c1)S2(=O)=O | 0.073 | 0.003 |  |  |
| CNC(=O)[C@@]12[C@@H](CN(c3ccc(C#N)c(C(F)(F)F)c3)S1(=O)=O)[C@H]1C[C@H](F)[C@@H]2C1 | 0.057 | 0.005 | 0.0031 | concentration at 2 h [12]: 2900 nM; Activity [13]: 30% |
| C[C@@]12[C@@H](CN(c3ccc(C#N)c(C(F)(F)F)c3)S1(=O)=O)[C@H]1C[C@H](O)[C@@H]2C1 | 0.106 | 0.003 | > 2 | Activity [14]: 60%; concentration at 2 h [15]: 790 nM |
| CCS(=O)(=O)N[C@@H]1C[C@@]2(C)O[C@]1(C)[C@@H]1C(=O)N(c3ccc(C#N)c(C(F)(F)F)c3)C(=O)[C@@H]12 |  |  |  | Activity [4]: 26%; concentration at 2 h [5]: 4000 nM |
| N#Cc1ccc(N2C[C@H]3[C@H]4CC[C@H](C4)[C@@]3(C(N)=O)S2(=O)=O)cc1C(F)(F)F | 0.055 | 0.003 | > 2 | Activity [13]: 55% |
| N#Cc1ccc(N2C[C@@H]3[C@@H]([C@@H]4C=C[C@H]3C4)S2(=O)=O)cc1C(F)(F)F | 0.219 | 0.012 |  |  |
| CNC(=O)[C@@]12[C@@H]3CC[C@@H](C3)[C@@H]1CN(c1ccc(C#N)c(C(F)(F)F)c1)S2(=O)=O | 0.044 | 0.003 | > 2 | concentration at 2 h [12]: 7250 nM; Activity [13]: 51% |
